Assay results taken from PubChem BioAssay (NCI).
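Assay format: 96-well plates, 48-hour exposure. GI50: concentration for 50% inhibition of growth. TGI is the concentration that stops growth completely.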

Assays:
Test in all cases: DTP human tumour cell line panel, 48 h
[1] = test system: 786-0 renal
[2] = test system: A498 renal
[3] = test system: A549 NSCLC
[4] = test system: ACHN renal
[5] = test system: BT-549 breast
[6] = test system: CAKI-1 renal
[7] = test system: CCRF-CEM leukemia
[8] = test system: COLO 205 colon
[9] = test system: DU-145 prostate
[10] = test system: EKVX NSCLC
[11] = test system: HCC-2998 colon
[12] = test system: HCT-116 colon
[13] = test system: HCT-15 colon
[14] = test system: HL-60(TB) leukemia
[15] = test system: HOP-62 NSCLC
[16] = test system: HOP-92 NSCLC
[17] = test system: HS 578T breast
[18] = test system: IGROV1 ovarian
[19] = test system: KM12 colon
[20] = test system: LOX IMVI melanoma
[21] = test system: M14 melanoma
[22] = test system: MALME-3M melanoma
[23] = test system: MCF7 breast
[24] = test system: MDA-MB-231 breast
[25] = test system: MDA-MB-435
[26] = test system: MDA-MB-468 breast
[27] = test system: MOLT-4 leukemia
[28] = test system: NCI-H226 lung
[29] = test system: NCI-H23 lung
[30] = test system: NCI-H522 lung
[31] = test system: NCI/ADR-RES ovarian
[32] = test system: OVCAR-3 ovarian
[33] = test system: OVCAR-4 ovarian
[34] = test system: OVCAR-5 ovarian
[35] = test system: OVCAR-8 ovarian
[36] = test system: PC-3 prostate
[37] = test system: RPMI-8226 leukemia
[38] = test system: RXF 393 renal
[39] = test system: SF-268 CNS
[40] = test system: SF-295 CNS
[41] = test system: SF-539 CNS
[42] = test system: SK-MEL-2 melanoma
[43] = test system: SK-MEL-28 melanoma
[44] = test system: SK-MEL-5 melanoma
[45] = test system: SK-OV-3 ovarian
[46] = test system: SN12C renal
[47] = test system: SNB-19 CNS
[48] = test system: SNB-75 CNS
[49] = test system: SW-620 colon
[50] = test system: T-47D breast
[51] = test system: TK-10 renal
[52] = test system: U251 CNS
[53] = test system: UACC-257 melanoma
[54] = test system: UACC-62 melanoma
[55] = test system: UO-31 renal

Compound: COc1ccc(-c2nc3cc(C)ccc3n2CC(=O)N=Nc2c(O)[nH]c3ccc(OC)cc23)cc1
- GI50 [1]: 3.37 µM
- TGI [1]: 11.7 µM
- GI50 [2]: 11.2 µM
- TGI [2]: 24.6 µM
- GI50 [3]: 1.99 µM
- TGI [3]: 4.43 µM
- GI50 [4]: 2.35 µM
- TGI [4]: 6.23 µM
- GI50 [5]: 1.88 µM
- TGI [5]: 4.01 µM
- GI50 [6]: 1.93 µM
- TGI [6]: 5.45 µM
- GI50 [7]: 3.6 µM
- TGI [7]: 13.3 µM
- GI50 [8]: 2.62 µM
- TGI [8]: 7.93 µM
- GI50 [9]: 3.54 µM
- TGI [9]: 14.7 µM
- GI50 [10]: 3.28 µM
- TGI [10]: 12.5 µM
- GI50 [11]: 3.66 µM
- TGI [11]: 13.2 µM
- GI50 [12]: 1.74 µM
- TGI [12]: 3.27 µM
- GI50 [13]: 2.56 µM
- TGI [13]: 7.51 µM
- GI50 [14]: 1.72 µM
- TGI [14]: 5.22 µM
- GI50 [15]: 2.52 µM
- TGI [15]: 6.96 µM
- GI50 [16]: 1.83 µM
- TGI [16]: 4.07 µM
- GI50 [17]: 2.02 µM
- TGI [17]: 5.15 µM
- GI50 [18]: 6.83 µM
- TGI [18]: 19.8 µM
- GI50 [19]: 1.85 µM
- TGI [19]: 3.72 µM
- GI50 [20]: 2.27 µM
- TGI [20]: 5.81 µM
- GI50 [21]: 1.8 µM
- TGI [21]: 3.38 µM
- GI50 [22]: 1.94 µM
- TGI [22]: 3.52 µM
- GI50 [23]: 2.01 µM
- TGI [23]: 4.96 µM
- GI50 [24]: 2.04 µM
- TGI [24]: 4.68 µM
- GI50 [25]: 1.88 µM
- TGI [25]: 3.76 µM
- GI50 [26]: 2.05 µM
- TGI [26]: 4.41 µM
- GI50 [27]: 2.65 µM
- TGI [27]: 8.57 µM
- GI50 [28]: 2 µM
- TGI [28]: 4.31 µM
- GI50 [29]: 2.48 µM
- TGI [29]: 6.88 µM
- GI50 [30]: 3.71 µM
- TGI [30]: 15.3 µM
- GI50 [31]: 2.34 µM
- TGI [31]: 5.52 µM
- GI50 [32]: 1.87 µM
- TGI [32]: 4.39 µM
- GI50 [33]: 1.84 µM
- TGI [33]: 3.79 µM
- GI50 [34]: 2.43 µM
- TGI [34]: 8.93 µM
- GI50 [35]: 2.3 µM
- TGI [35]: 5.89 µM
- GI50 [36]: 2.3 µM
- TGI [36]: 6.65 µM
- GI50 [37]: 3.22 µM
- TGI [37]: 14.9 µM
- GI50 [38]: 1.48 µM
- TGI [38]: 3.27 µM
- GI50 [39]: 2.43 µM
- TGI [39]: 8.3 µM
- GI50 [40]: 3.59 µM
- TGI [40]: 13.7 µM
- GI50 [41]: 1.62 µM
- TGI [41]: 3 µM
- GI50 [42]: 5.39 µM
- TGI [42]: 19.7 µM
- GI50 [43]: 1.73 µM
- TGI [43]: 3.19 µM
- GI50 [44]: 1.64 µM
- TGI [44]: 3.16 µM
- GI50 [45]: 4.32 µM
- TGI [45]: 15.6 µM
- GI50 [46]: 1.8 µM
- TGI [46]: 4.08 µM
- GI50 [47]: 4.3 µM
- TGI [47]: 16.1 µM
- GI50 [48]: 1.49 µM
- TGI [48]: 3.35 µM
- GI50 [49]: 2.11 µM
- TGI [49]: 5.1 µM
- GI50 [50]: 2.43 µM
- TGI [50]: 6.5 µM
- GI50 [51]: 3.13 µM
- TGI [51]: 11.9 µM
- GI50 [52]: 2.09 µM
- TGI [52]: 4.24 µM
- GI50 [53]: 2.38 µM
- TGI [53]: 6.02 µM
- GI50 [54]: 1.84 µM
- TGI [54]: 5.05 µM
- GI50 [55]: 11.2 µM
- TGI [55]: 23.6 µM
